Data: publication PMC4695662 (BioMed Research International, 2015)

How the values were obtained:
Oat1 and Oat3 [1] = experiment: Accumulation of PAH in kidney tissue; assay type: in vivo, mice; conditions: all sampling times after i.v. PAH, compared with C-1 (p < 0.01); in words
Method: The mice renal homogenate was prepared by Shihana et al. protocol. Each right kidney was cut into small pieces, which were put into a glass homogenizing tube containing PBS (200 mM sucrose, 137 mM NaCl, 2.7 mM KCl, 10 mM Na2HPO4, and 2 mM NaH2PO4; pH 7.4) at a ratio of 8 mL/g wet weight and then were homogenized with a motor-driven Teflon pestle (1000 rpm/min) and spun down for 30 min at 20,000 ×g. The supernatant was isolated and then stored at −20°C until determination. The kidney homogenates were prepared from each group which was removed at 1, 5, 10, 20, and 30 min after i.v. PAH. Protein content of kidney homogenates was quantified using the Lowry Folin phenol reagent (Nanjing Jiancheng Bioengineering Institute, Ltd., China, Lot. 130918). The concentrations of PAH in kidney homogenate were determined the same as that in the sera.

Oat1 and Oat3 [2] = experiment: PAH uptake by mice renal slices after treatment; assay type: in vivo; conditions: 2 mM PAH, 20 min, 37°C, slices from mice treated twice a day for five days; in words
Method: The uptake of PAH by mice renal slices was investigated using the procedures described by Henderson and Lindup. Briefly, mice were executed, and the kidneys were immediately harvested, decapsulated, and placed in an ice-cold oxygenated rinse PBS (pH 7.4). Renal slices (weight 10–20 mg/slice) were cut freehand with Gillette valet strip blades to about 0.2 inches in length (Sabre International Products Ltd., Reading, UK). Slices of one kidney were preincubated for 5 min at 37°C and incubated in a 12-well plate with 1 mL of oxygenated PAH-buffer which consisted of 2 mM PAH, 97 mM NaCl, 40 mM KCl, 0.74 mM CaCl2, and 7.5 mM sodium phosphate-chloride buffer in each well. The uptake study was carried out at 37°C in the shaking bath. After incubating for 20 min, each slice was rapidly removed from the PAH-buffer, immediately inactivated the proteins with trichloroacetic acid, was washed in ice-cold saline, was blotted on filter paper, was weighed, and then was homogenized at a ratio of 3 mL/g wet weight. The following operations were the same as described in Section 2.6.

Oat1 mRNA = Oat1 mRNA expression in kidney by real-time PCR; assay type: in vivo; conditions: renal cortex of mice
Method: (§1) Total RNA was extracted using Trizol reagent from renal cortical tissues according to the manufacturer's instructions and RNA concentration and purity were evaluated by measuring the ratio of A260 nm/A280 nm. First-strand cDNA was generated by adding 1 μg total RNA; 2 μL 5x gDNA Eraser Buffer; 1 μL gDNA Eraser; 5 μL RNase Free dH2O (step 1: 42°C, 2 min for genomic DNA elimination reaction); […]; 1 μL Prime Script RT Enzyme Mix I; 1 μL RT Primer Mix; 4 μL RNase Free dH2O; and 10 μL reaction solution from step 1, which were used to reach a total reaction volume of 20 μL. The condition of reverse-transcription (RT) reaction was as follows, 15 min at 37°C and 85°C for 5 s, and stored at 4°C. […]
(§2) The real-time quantitative PCR was conducted in ABI 7500 (Applied Biosystems, USA) and the cycling program was set at 1 cycle of predenaturation at 95°C for 30 s and then 40 cycles at 95°C for 15 s, 56°C for 30 s, and 72°C for 31 s. […] Quantification of the target cDNAs in all samples was normalized to GAPDH […] (Cttarget − CtGAPDH = ΔCt) and the difference in expression for each target cDNA in the investigated groups was expressed to the amount in the water control group (ΔCttreated − ΔCtcontrol = ΔΔCt). Fold changes in target gene expression were determined by taking 2 to the power of this number (2^−ΔΔCt).

Oat3 mRNA = Oat3 mRNA expression in kidney by real-time PCR; assay type: in vivo; conditions: renal cortex of mice
Method: as §1, §2

Oat1 and Oat3 [3] = experiment: PAH pharmacokinetic studies in mice sera after oral treatment with investigational samples; conditions: in words, versus control
Method: All mice were given standard mice chows and pure water ad libitum and housed at 20~26°C.
On the experiment day, 60 min after the last administration of investigational samples, all mice were single i.v. PAH (30 mg/kg B.W., aqueous solution), respectively, according to the protocol of Bertani et al. [16] and blood samples were collected from 10 mice/group by euthanization in each time point at 1.0, 2.5, 5.0, 7.5, 10.0, 20.0, and 30.0 min after PAH injection. Blood samples were centrifuged at 2000 ×g for 5 min. The obtained sera were stored at −20°C until measurement.
The concentration of PAH in sera was determined according to Saikan and Kiguchi [19] method. The sera concentration versus time curve for PAH, for each individual animal, was fitted with PK software DAS 2.0. The data were fitted to a biexponential curve. The choice of the best fit was based on the determination of coefficient values (R ^2) and LSD test [20]. All fits should have R ^2 values > 0.98. […] Concentration of PAH in serum was measured using the method described by Di Giusto et al. [21].

Which results are given for `[Cl][Hg][Cl]` [HgCl2]?
PAH accumulations in the kidneys (Oat1 and Oat3 [1]): observably increased; Active uptake of PAH by renal slices (Oat1 and Oat3 [2]): interfered with the PAH uptake; Reduction of Oat1 mRNA expression (Oat1 mRNA): 40%; Decrease in Oat3 mRNA level (Oat3 mRNA): 40%; Change of area under the curve (AUC0–30 min) of serum PAH (Oat1 and Oat3 [3]): significant increase; Change of total volume of distribution (VdT) of serum PAH (Oat1 and Oat3 [3]): obvious decrease
